Values joined by “and” are separate entries in the source; they are usually repeats but may differ in a detail not shown here. Equal values may be shown once.
Columns and labels:
[1] = target: T1, mDOR (Mus musculus, UniProt P32300); test: CAMYEL BRET cAMP agonist assay at mDOR; type: cell-based; conditions: for Agonist activity of 7OH analogs at mDOR: single replicate values, Supplementary Figure 7B
T1 construct: expressed in transfected cells

[2] = target: hKOR (Homo sapiens, UniProt P41145); test: CAMYEL BRET cAMP agonist assay at hKOR; type: cell-based; conditions: individual replicates, Supplementary Figure 8A source data
[3] = target: T2, mMOR (Mus musculus, UniProt P42866); test: [125I]BNtxA radioligand competition binding, mouse MOR; conditions: mean ± SEM, n = 3; [125I]BNtxA; read-out: Ki ± SEM mMOR
T2 construct: signal peptide (heterologous, not specified) (N); expressed in transfected cells; pcDNA3.1(+) construct made in house

[4] = target: T3, hMOR (Homo sapiens, UniProt P35372); test: CAMYEL BRET cAMP agonist assay at hMOR; type: cell-based; conditions: for cAMP %: hMOR, single replicates, source data Fig 6c, listed as C11-Br-7OH (24)
T3 construct: expressed in transfected cells; plasmid a gift from Dr. Nevin Lambert

[5] = target: T4, rKOR (Rattus norvegicus, UniProt P34975); test: CAMYEL BRET cAMP agonist assay at rKOR; type: cell-based; conditions: individual replicates, Supplementary Figure 8B source data
T4 construct: expressed in transfected cells
T4 sequence (P34975 whole entry): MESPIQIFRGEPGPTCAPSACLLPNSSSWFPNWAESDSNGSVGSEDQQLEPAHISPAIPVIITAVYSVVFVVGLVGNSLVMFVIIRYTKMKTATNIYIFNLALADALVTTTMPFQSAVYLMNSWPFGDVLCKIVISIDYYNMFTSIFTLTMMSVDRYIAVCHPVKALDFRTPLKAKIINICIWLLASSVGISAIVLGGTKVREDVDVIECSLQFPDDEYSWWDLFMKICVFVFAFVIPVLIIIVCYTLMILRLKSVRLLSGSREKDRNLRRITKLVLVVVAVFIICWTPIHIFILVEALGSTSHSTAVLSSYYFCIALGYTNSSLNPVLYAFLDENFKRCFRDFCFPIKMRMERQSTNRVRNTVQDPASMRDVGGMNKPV

T1 sequence (P32300 whole entry): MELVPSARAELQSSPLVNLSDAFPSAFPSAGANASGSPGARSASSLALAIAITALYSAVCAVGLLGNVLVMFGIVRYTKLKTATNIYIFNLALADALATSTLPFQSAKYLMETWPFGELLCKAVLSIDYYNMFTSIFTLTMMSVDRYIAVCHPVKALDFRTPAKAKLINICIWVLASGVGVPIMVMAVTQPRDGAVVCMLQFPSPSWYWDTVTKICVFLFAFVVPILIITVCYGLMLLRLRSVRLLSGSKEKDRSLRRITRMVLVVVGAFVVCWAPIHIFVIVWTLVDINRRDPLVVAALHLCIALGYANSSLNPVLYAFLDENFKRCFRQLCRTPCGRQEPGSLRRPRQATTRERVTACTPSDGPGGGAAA
Sequence of hKOR (P41145 whole entry): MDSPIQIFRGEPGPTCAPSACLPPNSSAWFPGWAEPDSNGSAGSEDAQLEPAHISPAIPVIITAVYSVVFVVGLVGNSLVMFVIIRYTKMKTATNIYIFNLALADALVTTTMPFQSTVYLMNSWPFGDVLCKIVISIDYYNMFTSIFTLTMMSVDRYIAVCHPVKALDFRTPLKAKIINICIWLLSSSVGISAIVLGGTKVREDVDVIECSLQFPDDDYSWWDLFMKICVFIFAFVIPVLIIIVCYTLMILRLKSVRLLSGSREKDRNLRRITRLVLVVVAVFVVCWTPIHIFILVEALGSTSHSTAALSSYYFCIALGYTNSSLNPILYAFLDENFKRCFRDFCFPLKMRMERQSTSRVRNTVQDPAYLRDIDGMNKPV
T3 sequence (P35372 whole entry): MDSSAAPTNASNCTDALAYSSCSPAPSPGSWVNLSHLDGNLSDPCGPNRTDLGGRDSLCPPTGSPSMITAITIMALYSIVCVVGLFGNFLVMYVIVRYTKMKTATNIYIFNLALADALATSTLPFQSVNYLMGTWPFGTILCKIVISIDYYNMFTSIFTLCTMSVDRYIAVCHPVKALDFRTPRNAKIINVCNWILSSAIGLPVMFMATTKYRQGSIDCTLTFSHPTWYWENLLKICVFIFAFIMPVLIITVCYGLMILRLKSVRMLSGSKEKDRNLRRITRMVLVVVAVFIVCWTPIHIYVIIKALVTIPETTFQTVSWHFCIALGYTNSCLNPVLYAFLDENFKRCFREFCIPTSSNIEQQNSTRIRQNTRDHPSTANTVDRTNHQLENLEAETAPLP
T2 sequence (P42866 whole entry): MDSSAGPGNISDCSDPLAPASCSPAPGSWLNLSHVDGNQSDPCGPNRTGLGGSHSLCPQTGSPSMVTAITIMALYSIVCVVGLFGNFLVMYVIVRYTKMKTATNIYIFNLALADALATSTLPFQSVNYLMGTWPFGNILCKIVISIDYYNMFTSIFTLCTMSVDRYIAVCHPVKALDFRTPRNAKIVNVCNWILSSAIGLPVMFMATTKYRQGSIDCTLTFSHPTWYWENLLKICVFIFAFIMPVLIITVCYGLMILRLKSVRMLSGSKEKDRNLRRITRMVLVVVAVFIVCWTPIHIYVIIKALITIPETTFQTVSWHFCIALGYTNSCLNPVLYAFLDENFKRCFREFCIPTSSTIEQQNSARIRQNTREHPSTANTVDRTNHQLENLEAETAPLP

Q: Which results are given for `CC[C@@H]1CN2CC[C@@]3(O)C(=Nc4cc(Br)cc(OC)c43)[C@@H]2C[C@@H]1/C(=C\OC)C(=O)OC` [11-Br-7OH (24), 11-Br-7OH]?
A: Agonist activity of 7OH analogs at mDOR ([1]; Log[drug] (M) -8): 10.5957 and 18.0747 and 9.651 and 4.935 and -3.078 and 4.75 and 6.109 and 1.285 and 9.808; Agonist activity of 7OH analogs at mDOR ([1]; Log[drug] (M) -9): 17.3278 and 15.5005 and 47.145 and -2.094 and 7.434 and -5.339 and 5.642 and -1.53 and 3.1; Agonist activity of 7OH analogs at mDOR ([1]; Log[drug] (M) -10): 8.93 and 5.939 and 6.52 and 4.461 and 5.129 and -1.733 and 2.478 and 3.975 and -1.971; Agonist activity of 7OH analogs at mDOR ([1]; Log[drug] (M) -11): 10.869 and 6.17 and -5.4274 and 13.8383 and 9.771 and 11.6667 and 2.792 and -1.117 and -1.6751; Agonist activity of 7OH analogs at mDOR ([1]; Log[drug] (M) -13): -4.49 and 2.526 and 1.964 and 13.4101 and 7.388 and 17.2326 and -5.081 and 4.508 and 13.385; Emax ([1]; mDOR cAMP BRET, positive control DPDPE): very low efficacy; Agonist activity of 7OH analogs at hKOR ([2]; Log [drug](M) -5): 10.9149 and -7.215 and 4.286 and 11.8421 and 11.499 and 10.9733 and -4.579 and 2.634 and 3.416; Agonist activity of 7OH analogs at hKOR ([2]; Log [drug](M) -6): 3.035 and -0.7724 and -13.4731 and 3.219 and -0.695 and 8.186 and -5.571 and -3.171 and 0.4347; Agonist activity of 7OH analogs at hKOR ([2]; Log [drug](M) -7): -0.1722 and -16.4342 and -16.1746 and -2.26 and -3.79 and -3.25 and 0.1411 and 2.3 and 5.19; Agonist activity of 7OH analogs at hKOR ([2]; Log [drug](M) -8): 22.3379 and -4.57 and 1.209 and 8.576 and -8.308 and -4.317 and 11.4126 and 9.041 and 4.453; Agonist activity of 7OH analogs at hKOR ([2]; Log [drug](M) -9): 2.393 and 14.1276 and 3.431 and 19.0489 and 8.55 and -5.559 and -3.604 and -6.454 and -4.21; Agonist activity of 7OH analogs at hKOR ([2]; Log [drug](M) -10): -9.31 and -5.502 and 19.956 and 11.266 and -0.5812 and -7.816 and -4.981 and -0.9266 and -11.4459; Agonist activity of 7OH analogs at hKOR ([2]; Log [drug](M) -11): 21.966 and -9.511 and 21.9409 and -12.3295 and 2.605 and 7.521 and 2.85 and -2.233 and 3.089; Agonist activity of 7OH analogs at hKOR ([2]; Log [drug](M) -13): -3.621 and -4.92 and 8.541 and 7.349 and -4.448 and -2.901 and 2.036 and -3.052 and 1.015; Ki [3]: 32.4 ± 1.4 nM; EC50 [4]: 401 nM; Emax [4]: 14%; cAMP % ([4]; Log[drug] (M) -5): 14.6374% and 26.5598% and 13.4593% and 12.3793% and 6.1202% and 3.5813% and 27.8092% and 3.652% and 6.737%; cAMP % ([4]; Log[drug] (M) -6): 18.6989% and 7.716% and 19.1803% and 0.2165% and 6.6608% and -0.2253% and 39.9126% and 18.2077% and 19.9668%; cAMP % ([4]; Log[drug] (M) -7): 12.0186% and 17.6725% and 14.4534% and 3.531% and 0.1326% and -1.3668% and -1.063% and 7.0578% and -1.6001%; cAMP % ([4]; Log[drug] (M) -8): 3.165% and 4.1647% and 7.3741% and 8.619% and 14.9301% and 11.6764% and -5.609% and -5.366% and 10.9759%; cAMP % ([4]; Log[drug] (M) -9): 2.317% and -1.298% and -1.019% and -2.259% and -7.165% and 10.2432% and 25.8292% and 21.9013% and 22.3959%; cAMP % ([4]; Log[drug] (M) -10): 4.34% and -1.394% and 4.504% and 1.432% and 0.8602% and -2.292% and 0.6443% and 11.4211% and 26.9944%; cAMP % ([4]; Log[drug] (M) -11): 6.752% and 9.529% and 9.016% and 11.4512% and -5.469% and 12.8282% and 13.3991% and 6.363% and 12.7423%; cAMP % ([4]; Log[drug] (M) -13, cAMP inhibition as % of DAMGO): 4.239% and 4.052% and 15.2175% and 4.859% and 6.721% and 16.8511% and 4.407% and 8.458% and 8.078%; Agonist activity of 7OH analogs at rKOR ([5]; Log [drug](M) -5): 25.6296 and -9.743 and 0.6611 and 8.628 and -4.988 and 6.198 and 4.323 and 3.4884 and 6.258; Agonist activity of 7OH analogs at rKOR ([5]; Log [drug](M) -6): 5.472 and -3.314 and -2.157 and 12.7013 and 24.7501 and 18.1661 and 1.856 and -1.539 and -0.3161; Agonist activity of 7OH analogs at rKOR ([5]; Log [drug](M) -7): 4.7985 and -15.0915 and 10.4804 and 13.2829 and 19.8014 and 0.6752 and 3.169 and 0.0803 and -0.9699; Agonist activity of 7OH analogs at rKOR ([5]; Log [drug](M) -8): 15.8006 and 9.743 and 5.004 and 1.565 and 3.381 and -4.9468 and 4.551 and 0.2655 and 16.2208; Agonist activity of 7OH analogs at rKOR ([5]; Log [drug](M) -9): 2.391 and 0.4693 and -2.7298 and 8.844 and 10.6443 and -8.128 and 0.4192 and -1.635 and 9.514; Agonist activity of 7OH analogs at rKOR ([5]; Log [drug](M) -10): -3.09 and -6.057 and 13.4494 and 16.7517 and 7.424 and 2.462 and 3.397 and 1.924 and 5.164; Agonist activity of 7OH analogs at rKOR ([5]; Log [drug](M) -11): -9.158 and 9.8247 and 5.5119 and -1.702 and 25.9779 and 16.6823 and 6.047 and 6.143 and 5.108; Agonist activity of 7OH analogs at rKOR ([5]; Log [drug](M) -13): -5.115 and 8.484 and 8.583 and 29.3433 and 7.52 and 9.7517 and 3.9044 and 5.761 and 8.186

Source: paper PMC8219695 (Nature Communications, 2021)
